# According to ChEMBL document CHEMBL5370665, “Insight from Linker Investigations: Discovery of a Novel Phenylbenzothiazole Necroptosis Inhibitor Targeting Receptor-Interacting Protein Kinase 1 (RIPK1) from a Phenoxybenzothiazole Compound with Dual RIPK1/3 Targeting Activity” (J Med Chem, 2023):
# Activity calls are given as the source filed them. No cut-off for these calls is given here.
# What was measured:
# Mus musculus [1] = experiment: Anti-inflammatory activity against C57BL/6J mouse model of TNFalpha-induced systemic inflammatory response syndrome (SIRS) assessed as increase in body temperature at 1.25 mg/kg,po 2 hrs prior to mTNFalpha and z-VAD-FMK stimulation and measured upto 18 hrs by electric thermometer analysis; type: functional, organism-based; settings: time 20.0 hrs
# Mus musculus [2] = experiment: Anti-inflammatory activity against C57BL/6J mouse model of TNFalpha-induced systemic inflammatory response syndrome (SIRS) assessed as decrease in IL-6 level in heart at 1.25 to 5 mg/kg,po 2 hrs prior to mTNFalpha and z-VAD-FMK stimulation for 8 hrs by ELISA; type: functional, organism-based; settings: dose 1.25-5 mg/kg, time 10.0 hrs
# [3] = biological target: T1, Receptor-interacting serine/threonine-protein kinase 1 (Homo sapiens, UniProt Q13546); experiment: Binding affinity to recombinant RIPK1 (unknown origin) assessed as dissociation constant incubated for 1 hr by KINOMEscanTM assay
# T1 sequence (Q13546 whole entry): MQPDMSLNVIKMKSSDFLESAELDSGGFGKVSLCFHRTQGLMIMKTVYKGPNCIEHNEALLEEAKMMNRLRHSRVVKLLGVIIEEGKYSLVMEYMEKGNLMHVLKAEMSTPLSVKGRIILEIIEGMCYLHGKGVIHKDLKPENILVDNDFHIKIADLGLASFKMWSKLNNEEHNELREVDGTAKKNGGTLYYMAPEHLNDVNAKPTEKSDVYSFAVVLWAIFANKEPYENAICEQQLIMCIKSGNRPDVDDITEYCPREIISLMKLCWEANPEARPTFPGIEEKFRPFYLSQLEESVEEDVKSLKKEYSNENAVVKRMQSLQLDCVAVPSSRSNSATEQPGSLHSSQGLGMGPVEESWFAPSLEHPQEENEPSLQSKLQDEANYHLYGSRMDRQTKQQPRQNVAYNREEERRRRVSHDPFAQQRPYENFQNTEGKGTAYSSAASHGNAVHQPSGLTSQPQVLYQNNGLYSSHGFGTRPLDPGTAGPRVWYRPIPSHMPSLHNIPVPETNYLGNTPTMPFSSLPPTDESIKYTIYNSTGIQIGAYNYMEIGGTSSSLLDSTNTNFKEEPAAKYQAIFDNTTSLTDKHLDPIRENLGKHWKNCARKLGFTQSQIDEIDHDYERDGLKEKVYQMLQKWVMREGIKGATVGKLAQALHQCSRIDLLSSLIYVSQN
# Mus musculus [4] = experiment: Anti-inflammatory activity against C57BL/6J mouse model of TNFalpha-induced systemic inflammatory response syndrome (SIRS) assessed as decrease in serum IL-6 level at 5 mg/kg,po 2 hrs prior to mTNFalpha and z-VAD-FMK stimulation for 8 hrs by ELISA; type: functional, organism-based; settings: time 10.0 hrs
# [5] = Acute toxicity in mouse assessed as behavioral changes at 100 to 200 mg/kg,IG and measured upto 14 days; type: organism-based; settings: in vivo, po, 336 h, dose 100-200 mg/kg, time < 14 day
# Mus musculus [6] = experiment: Anti-inflammatory activity against C57BL/6J mouse model of TNFalpha-induced systemic inflammatory response syndrome (SIRS) assessed as decrease in IL-1beta level in lung at 1.25 to 5 mg/kg,po 2 hrs prior to mTNFalpha and z-VAD-FMK stimulation for 8 hrs by ELISA; type: functional, organism-based; settings: dose 1.25-5 mg/kg, time 10.0 hrs
# Mus musculus [7] = experiment: Anti-inflammatory activity against C57BL/6J mouse model of TNFalpha-induced systemic inflammatory response syndrome (SIRS) assessed as decrease in IL-1beta level in brain at 1.25 to 5 mg/kg,po 2 hrs prior to mTNFalpha and z-VAD-FMK stimulation for 8 hrs by ELISA; type: functional, organism-based; settings: dose 1.25-5 mg/kg, time 10.0 hrs
# [8] = Acute toxicity in mouse assessed as increase in body weight at 100 to 200 mg/kg,IG and measured upto 14 days; type: organism-based; settings: in vivo, po, 336 h, dose 100-200 mg/kg, time < 14 day
# HT-29 [9] = experiment: Anti-apoptotic activity against human HT-29 cells assessed as inhibition of TC (human TNFalpha, cycloheximide) induced apoptosis upto 20 uM pretreated with compound followed by TC stimulation for 36 hrs by CellTiter-Glo Luminescent cell viability assay; type: functional, cell-based
# HT-29 [10] = experiment: Anti-necroptic activity against human HT-29 cells assessed as inhibition of TCZ (human TNFalpha, cycloheximide and z-VAD-FMK) induced necroptosis at 125 to 500 nM pretreated with compound followed by TCZ stimulation for 18 hrs by CellTiter-Glo Luminescent cell viability assay; type: functional, cell-based; settings: dose 125-500 nM
# HT-29 [11] = experiment: Anti-apoptotic activity against human HT-29 cells assessed as inhibition of TS (human TNFalpha, Smac mimetic) induced apoptosis upto 1 uM pretreated with compound followed […] for 24 hrs by CellTiter-Glo Luminescent cell viability assay; type: functional, cell-based
# [12] = Acute toxicity in mouse assessed as pathological damage in brain at 100 to 200 mg/kg,IG and measured after 14 days by H and E staining based microscopy; type: organism-based; settings: in vivo, po, 336 h, dose 100-200 mg/kg, time 14 day
# [13] = biological target: T2, Receptor-interacting serine/threonine-protein kinase 1 (Homo sapiens) (UniProt Q13546); experiment: Inhibition of RIPK1 phosphorylation in TSZ induced human HT-29 cells at 1 to 1000 nM pretreated with compound followed by TSZ stimulation for 6 hrs by Western blot analysis; type: cell-based; settings: dose 1-1000 nM
# T2 sequence (whole entry): T1 sequence (Q13546 whole entry)
compound,measurement,setting,value
O=C(Cc1cccc(OC(F)(F)F)c1)Nc1cc(-c2ccc3nc(NC(=O)C4CC4)sc3c2)ccc1F,Activity,Mus musculus [1],Active
same,Activity,Mus musculus [2],Dose-Dependent Effect
same,Kd,[3],17 nM
same,Activity,Mus musculus [4],Active
same,Activity,[5],Non-Toxic
same,Activity,Mus musculus [6],Active
same,Activity,Mus musculus [7],inactive
same,Activity,[8],Non-Toxic
same,Activity,HT-29 [9],inactive
same,Activity,HT-29 [10],Dose-Dependent Effect
same,Activity,HT-29 [11],inactive
same,Activity,[12],Non-Toxic
same,inhibition,[13],Dose-Dependent Effect
